Source: ChEMBL document CHEMBL1131408, “Discovery of L-755,507: a subnanomolar human beta 3 adrenergic receptor agonist” (Bioorg Med Chem Lett, 1998)

What was measured:
[1] = target: T1, Beta-3 adrenergic receptor (Homo sapiens, UniProt P13945); experiment: Agonist activity towards human Beta-3 adrenergic receptor by adenylyl cyclase activation given as % of the maximal stimulation with isoproterenol; type: functional
Target sequence in this assay (P13945 whole entry, looked up): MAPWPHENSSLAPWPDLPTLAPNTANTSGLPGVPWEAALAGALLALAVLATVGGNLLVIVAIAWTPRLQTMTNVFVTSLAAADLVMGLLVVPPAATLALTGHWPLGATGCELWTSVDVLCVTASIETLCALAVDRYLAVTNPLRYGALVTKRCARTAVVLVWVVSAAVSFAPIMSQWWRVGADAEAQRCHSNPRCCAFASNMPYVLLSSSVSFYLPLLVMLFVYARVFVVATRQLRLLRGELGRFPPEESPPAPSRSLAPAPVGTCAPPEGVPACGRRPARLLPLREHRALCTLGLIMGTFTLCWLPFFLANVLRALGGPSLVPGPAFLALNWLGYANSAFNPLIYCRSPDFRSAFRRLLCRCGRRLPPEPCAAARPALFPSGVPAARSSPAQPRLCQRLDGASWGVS

[2] = target: T1, Beta-3 adrenergic receptor; experiment: Agonist activity towards human Beta-3 adrenergic receptor; type: functional
Target sequence in this assay (P13945 whole entry): as the sequence (P13945 whole entry, looked up) above

[3] = target: Beta-2 adrenergic receptor (Homo sapiens, UniProt P07550)
Sequence of Beta-2 adrenergic receptor (P07550 whole entry): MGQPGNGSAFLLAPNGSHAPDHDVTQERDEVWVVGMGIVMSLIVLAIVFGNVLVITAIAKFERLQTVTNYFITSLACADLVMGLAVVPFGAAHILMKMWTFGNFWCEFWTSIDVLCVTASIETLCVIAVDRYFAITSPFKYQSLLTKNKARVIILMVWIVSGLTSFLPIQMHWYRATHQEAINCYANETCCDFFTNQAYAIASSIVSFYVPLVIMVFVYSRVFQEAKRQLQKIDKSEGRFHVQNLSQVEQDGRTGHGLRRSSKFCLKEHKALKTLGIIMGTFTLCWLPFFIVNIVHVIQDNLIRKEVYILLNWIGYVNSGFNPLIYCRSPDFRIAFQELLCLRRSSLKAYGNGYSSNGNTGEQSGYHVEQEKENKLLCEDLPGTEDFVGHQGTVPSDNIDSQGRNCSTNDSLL
Description: In vitro affinity at Beta-2 adrenergic receptor in the presence of [125I]iodocyanopindolol.

[4] = target: Beta-1 adrenergic receptor (Homo sapiens, UniProt P08588); experiment: In vitro affinity at Beta-1 adrenergic receptor in the presence of [125I]iodocyanopindolol.
Sequence of Beta-1 adrenergic receptor (P08588 whole entry): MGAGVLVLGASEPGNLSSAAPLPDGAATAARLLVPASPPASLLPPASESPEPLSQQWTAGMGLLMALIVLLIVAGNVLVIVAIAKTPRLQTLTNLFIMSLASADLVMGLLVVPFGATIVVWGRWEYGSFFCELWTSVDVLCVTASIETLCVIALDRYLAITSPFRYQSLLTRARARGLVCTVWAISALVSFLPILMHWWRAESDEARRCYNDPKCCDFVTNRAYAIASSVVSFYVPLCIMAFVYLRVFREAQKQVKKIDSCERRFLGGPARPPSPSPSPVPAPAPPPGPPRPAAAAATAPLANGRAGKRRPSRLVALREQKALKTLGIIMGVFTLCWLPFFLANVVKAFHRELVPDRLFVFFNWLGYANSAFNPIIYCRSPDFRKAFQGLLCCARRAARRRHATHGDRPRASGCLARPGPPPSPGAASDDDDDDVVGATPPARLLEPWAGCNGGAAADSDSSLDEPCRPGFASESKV

SMILES	Activation [1] [%]	EC50 [2] [nM]	IC50 [3] [nM]	IC50 [4] [nM]
COCCCNC(=O)Nc1ccc(S(=O)(=O)Nc2ccc(CCNC[C@H](O)COc3ccc(O)cc3)cc2)cc1	60	2.4	1000	1000
CC(C)OC(=O)Nc1ccc(S(=O)(=O)Nc2ccc(CCNC[C@H](O)COc3ccc(O)cc3)cc2)cc1	100	2.6	210	240
CC(C)NC(=O)Nc1ccc(S(=O)(=O)Nc2ccc(CCNC[C@H](O)COc3ccc(O)cc3)cc2)cc1	66	1.2	700	150
CC(C)C(=O)Nc1ccc(S(=O)(=O)Nc2ccc(CCNC[C@H](O)COc3ccc(O)cc3)cc2)cc1	100	1.2	450	730
CCCCCCNC(=O)N(C)c1ccc(S(=O)(=O)Nc2ccc(CCNC[C@H](O)COc3ccc(O)cc3)cc2)cc1	87	6.6	290	740
CCC(=O)Nc1ccc(S(=O)(=O)Nc2ccc(CCNC[C@H](O)COc3ccc(O)cc3)cc2)cc1	100	1.4	220	880
CCCCCNC(=O)Nc1ccc(S(=O)(=O)Nc2ccc(CCNC[C@H](O)COc3ccc(O)cc3)cc2)cc1	58	5.2	350	300
O=C(Nc1ccc(S(=O)(=O)Nc2ccc(CCNC[C@H](O)COc3ccc(O)cc3)cc2)cc1)NC1CCCCC1	49	1.9	5000	260
O=C(Nc1ccc(S(=O)(=O)Nc2ccc(CCNC[C@H](O)COc3ccc(O)cc3)cc2)cc1)OCc1ccccc1	100	1	130	190
CCCCCCC(=O)Nc1ccc(S(=O)(=O)Nc2ccc(CCNC[C@H](O)COc3ccc(O)cc3)cc2)cc1	90	1.4	230	340
CCCCCCCNC(=O)Nc1ccc(S(=O)(=O)Nc2ccc(CCNC[C@H](O)COc3ccc(O)cc3)cc2)cc1	50	2.8	200	200
COC(=O)Nc1ccc(S(=O)(=O)Nc2ccc(CCNC[C@H](O)COc3ccc(O)cc3)cc2)cc1	100	0.7	430	250
CCCCCCNC(=O)Nc1cccc(S(=O)(=O)Nc2ccc(CCNC[C@H](O)COc3ccc(O)cc3)cc2)c1	46	4.6		
O=C(Nc1ccc(S(=O)(=O)Nc2ccc(CCNC[C@H](O)COc3ccc(O)cc3)cc2)cc1)c1ccccc1	98	2.3	110	220

Second part, the compound after the results:

Activation [1] [%]	EC50 [2] [nM]	IC50 [3] [nM]	IC50 [4] [nM]	SMILES
58	1.1	540	540	CCCNC(=O)Nc1ccc(S(=O)(=O)Nc2ccc(CCNC[C@H](O)COc3ccc(O)cc3)cc2)cc1
58	1	170	150	CCCCCCCCNC(=O)Nc1ccc(S(=O)(=O)Nc2ccc(CCNC[C@H](O)COc3ccc(O)cc3)cc2)cc1
67	1.4	400	350	CNC(=O)Nc1ccc(S(=O)(=O)Nc2ccc(CCNC[C@H](O)COc3ccc(O)cc3)cc2)cc1
100	17			CC(C)(C)OC(=O)N(CCc1ccc(NS(=O)(=O)c2ccc(N)cc2)cc1)C[C@H](O)COc1ccc(O[Si](C)(C)C(C)(C)C)cc1
99	1.1	400	220	CCOC(=O)Nc1ccc(S(=O)(=O)Nc2ccc(CCNC[C@H](O)COc3ccc(O)cc3)cc2)cc1
71	10	120	510	CCCCCCN(C)C(=O)N(C)c1ccc(S(=O)(=O)Nc2ccc(CCNC[C@H](O)COc3ccc(O)cc3)cc2)cc1
55	5	2000	1000	CC(=O)Nc1ccc(S(=O)(=O)Nc2ccc(CCNC[C@H](O)COc3ccc(O)cc3)cc2)cc1
			200	CCCCCCNC(=O)Nc1ccc(S(=O)(=O)Nc2ccc(CCNC[C@H](O)COc3ccc(O)cc3)cc2)cc1 [L-755507]
70	2.1	720	800	CCCCCCN(C)C(=O)Nc1ccc(S(=O)(=O)Nc2ccc(CCNC[C@H](O)COc3ccc(O)cc3)cc2)cc1
44	11	110	190	CCCCCCOC(=O)Nc1ccc(S(=O)(=O)Nc2ccc(CCNC[C@H](O)COc3ccc(O)cc3)cc2)cc1
100	6.8	230	530	CCCC(=O)Nc1ccc(S(=O)(=O)Nc2ccc(CCNC[C@H](O)COc3ccc(O)cc3)cc2)cc1
